The target in assay [1] is RAC-gamma serine/threonine-protein kinase (Homo sapiens) (UniProt Q9Y243). In words: Inhibition of AKT3 (unknown origin) assessed as residual activity at 100 nM by KINOMEscan analysis relative to control.
Assay [2] has as its target 5'-AMP-activated protein kinase catalytic subunit alpha-2 (Homo sapiens) (UniProt P54646). Nature of the assay: Inhibition of AMPK-alpha2 (unknown origin) assessed as residual activity at 100 nM by KINOMEscan analysis relative to control.
The target of assay [3] is Calcium/calmodulin-dependent protein kinase type 1G (Homo sapiens) (UniProt Q96NX5). In words: Inhibition of CAMK1G (unknown origin) assessed as residual activity at 100 nM by KINOMEscan analysis relative to control.
Assay [4] concerns the target Casein kinase I isoform gamma-2 (Homo sapiens) (UniProt P78368). In words: Inhibition of CSNK1G2 (unknown origin) assessed as residual activity at 100 nM by KINOMEscan analysis relative to control.
Assay [5] deals with T1, Ephrin type-B receptor 3 (Homo sapiens) (UniProt P54753).
T1 sequence (whole entry): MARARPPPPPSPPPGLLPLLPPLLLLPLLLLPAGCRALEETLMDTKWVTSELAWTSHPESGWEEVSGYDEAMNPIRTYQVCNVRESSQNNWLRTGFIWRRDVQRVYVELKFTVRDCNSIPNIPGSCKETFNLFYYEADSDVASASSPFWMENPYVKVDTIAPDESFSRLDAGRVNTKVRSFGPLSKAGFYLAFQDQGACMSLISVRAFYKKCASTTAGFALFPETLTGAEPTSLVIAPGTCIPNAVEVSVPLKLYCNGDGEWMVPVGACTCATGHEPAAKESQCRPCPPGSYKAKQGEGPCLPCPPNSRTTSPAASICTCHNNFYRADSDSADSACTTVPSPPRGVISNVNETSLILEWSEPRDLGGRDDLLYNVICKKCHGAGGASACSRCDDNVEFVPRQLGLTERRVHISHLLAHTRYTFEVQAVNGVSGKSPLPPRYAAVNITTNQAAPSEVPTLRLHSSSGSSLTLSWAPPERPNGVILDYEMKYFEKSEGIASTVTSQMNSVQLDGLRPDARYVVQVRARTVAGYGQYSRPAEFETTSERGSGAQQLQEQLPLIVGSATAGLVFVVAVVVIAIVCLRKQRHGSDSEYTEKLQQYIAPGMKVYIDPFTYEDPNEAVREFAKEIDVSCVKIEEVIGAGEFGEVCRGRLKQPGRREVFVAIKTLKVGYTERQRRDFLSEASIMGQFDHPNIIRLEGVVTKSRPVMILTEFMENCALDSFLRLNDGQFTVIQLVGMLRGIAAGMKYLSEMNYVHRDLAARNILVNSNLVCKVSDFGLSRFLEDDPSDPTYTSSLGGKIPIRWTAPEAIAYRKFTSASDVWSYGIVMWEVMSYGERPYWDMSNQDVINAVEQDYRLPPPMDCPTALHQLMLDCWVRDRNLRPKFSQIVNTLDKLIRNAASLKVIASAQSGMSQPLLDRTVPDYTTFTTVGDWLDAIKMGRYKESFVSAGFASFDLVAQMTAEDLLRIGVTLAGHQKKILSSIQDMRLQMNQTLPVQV
In words: Inhibition of EPHB3 (unknown origin) assessed as residual activity at 100 nM by KINOMEscan analysis relative to control.

For assay [6], the target named is Mitogen-activated protein kinase 14 (Homo sapiens) (UniProt Q16539). In words: Inhibition of p38-alpha (unknown origin) assessed as residual activity at 100 nM by KINOMEscan analysis relative to control.
For assay [7], the target named is Phosphatidylinositol 4-phosphate 5-kinase type-1 alpha (Homo sapiens) (UniProt Q99755). In words: Inhibition of PIP5K1A (unknown origin) assessed as residual activity at 100 nM by KINOMEscan analysis relative to control.
For assay [8], the target named is High affinity nerve growth factor receptor (Homo sapiens) (UniProt P04629). Nature of the assay: Inhibition of TRKA (unknown origin) assessed as residual activity at 100 nM by KINOMEscan analysis relative to control.
For assay [9], the target named is Mitogen-activated protein kinase kinase kinase 12 (Homo sapiens) (UniProt Q12852). In words: Inhibition of DLK (unknown origin) assessed as residual activity at 100 nM by KINOMEscan analysis relative to control.
Mitogen-activated protein kinase kinase kinase 12 (Homo sapiens), sequence (Q12852 whole entry, looked up): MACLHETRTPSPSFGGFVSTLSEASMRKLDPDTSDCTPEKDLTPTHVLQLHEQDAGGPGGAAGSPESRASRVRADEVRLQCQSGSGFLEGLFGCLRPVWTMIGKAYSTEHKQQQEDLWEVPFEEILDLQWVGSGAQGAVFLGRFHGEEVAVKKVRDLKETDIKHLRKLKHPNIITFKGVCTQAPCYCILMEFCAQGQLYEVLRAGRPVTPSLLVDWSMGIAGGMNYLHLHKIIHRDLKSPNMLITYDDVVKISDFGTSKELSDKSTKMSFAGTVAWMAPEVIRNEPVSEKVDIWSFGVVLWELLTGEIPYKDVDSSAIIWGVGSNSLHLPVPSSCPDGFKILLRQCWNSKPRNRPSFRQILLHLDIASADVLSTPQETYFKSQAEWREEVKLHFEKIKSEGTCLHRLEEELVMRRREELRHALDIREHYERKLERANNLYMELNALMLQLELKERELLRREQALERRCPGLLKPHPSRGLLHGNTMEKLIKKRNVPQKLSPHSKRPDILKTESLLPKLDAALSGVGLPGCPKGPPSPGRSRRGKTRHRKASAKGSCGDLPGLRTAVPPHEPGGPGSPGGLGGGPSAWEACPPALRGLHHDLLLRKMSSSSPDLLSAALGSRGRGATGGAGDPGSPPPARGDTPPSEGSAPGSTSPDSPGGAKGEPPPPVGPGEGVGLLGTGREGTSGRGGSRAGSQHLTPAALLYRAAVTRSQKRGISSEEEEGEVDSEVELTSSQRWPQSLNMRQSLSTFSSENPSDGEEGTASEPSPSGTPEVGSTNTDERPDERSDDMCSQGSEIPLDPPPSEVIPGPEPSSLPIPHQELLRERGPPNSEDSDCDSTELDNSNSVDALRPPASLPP

Calcium/calmodulin-dependent protein kinase type 1G (Homo sapiens), sequence (Q96NX5 whole entry, canonical isoform): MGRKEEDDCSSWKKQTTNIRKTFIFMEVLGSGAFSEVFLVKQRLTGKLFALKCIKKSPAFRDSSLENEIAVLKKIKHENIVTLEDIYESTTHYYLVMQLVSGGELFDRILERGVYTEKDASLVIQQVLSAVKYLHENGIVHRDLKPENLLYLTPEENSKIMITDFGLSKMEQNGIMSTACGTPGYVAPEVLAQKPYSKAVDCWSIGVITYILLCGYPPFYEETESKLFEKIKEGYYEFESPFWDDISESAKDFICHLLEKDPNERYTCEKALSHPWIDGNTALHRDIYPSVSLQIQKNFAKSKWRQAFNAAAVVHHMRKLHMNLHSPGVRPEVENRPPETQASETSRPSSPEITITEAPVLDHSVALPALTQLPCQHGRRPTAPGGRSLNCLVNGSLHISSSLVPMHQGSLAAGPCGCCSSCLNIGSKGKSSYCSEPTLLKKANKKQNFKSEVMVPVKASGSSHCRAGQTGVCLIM
Mitogen-activated protein kinase 14 (Homo sapiens), sequence (Q16539 whole entry): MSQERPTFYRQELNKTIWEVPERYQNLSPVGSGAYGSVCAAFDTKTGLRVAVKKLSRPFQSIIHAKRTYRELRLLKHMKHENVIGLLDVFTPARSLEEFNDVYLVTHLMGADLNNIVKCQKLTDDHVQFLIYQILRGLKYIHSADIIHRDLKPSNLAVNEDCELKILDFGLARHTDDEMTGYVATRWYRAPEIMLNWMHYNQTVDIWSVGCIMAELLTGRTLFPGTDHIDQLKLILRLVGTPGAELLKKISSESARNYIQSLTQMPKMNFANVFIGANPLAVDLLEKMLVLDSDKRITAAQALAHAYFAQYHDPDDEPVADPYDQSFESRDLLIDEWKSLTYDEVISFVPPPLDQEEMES
RAC-gamma serine/threonine-protein kinase (Homo sapiens), sequence (Q9Y243 whole entry): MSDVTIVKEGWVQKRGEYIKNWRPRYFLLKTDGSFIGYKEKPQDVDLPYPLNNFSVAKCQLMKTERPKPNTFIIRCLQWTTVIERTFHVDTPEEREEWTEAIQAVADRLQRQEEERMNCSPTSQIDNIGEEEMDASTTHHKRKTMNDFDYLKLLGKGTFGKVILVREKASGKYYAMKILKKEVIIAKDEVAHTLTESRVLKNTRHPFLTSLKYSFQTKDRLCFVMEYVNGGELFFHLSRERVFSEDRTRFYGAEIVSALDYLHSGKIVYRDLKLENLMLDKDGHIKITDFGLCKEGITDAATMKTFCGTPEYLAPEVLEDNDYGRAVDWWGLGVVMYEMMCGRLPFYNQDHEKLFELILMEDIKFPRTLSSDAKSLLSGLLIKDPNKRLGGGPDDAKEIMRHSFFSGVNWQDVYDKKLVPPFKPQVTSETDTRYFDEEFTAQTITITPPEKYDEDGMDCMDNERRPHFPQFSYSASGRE
5'-AMP-activated protein kinase catalytic subunit alpha-2 (Homo sapiens), sequence (P54646 whole entry, looked up): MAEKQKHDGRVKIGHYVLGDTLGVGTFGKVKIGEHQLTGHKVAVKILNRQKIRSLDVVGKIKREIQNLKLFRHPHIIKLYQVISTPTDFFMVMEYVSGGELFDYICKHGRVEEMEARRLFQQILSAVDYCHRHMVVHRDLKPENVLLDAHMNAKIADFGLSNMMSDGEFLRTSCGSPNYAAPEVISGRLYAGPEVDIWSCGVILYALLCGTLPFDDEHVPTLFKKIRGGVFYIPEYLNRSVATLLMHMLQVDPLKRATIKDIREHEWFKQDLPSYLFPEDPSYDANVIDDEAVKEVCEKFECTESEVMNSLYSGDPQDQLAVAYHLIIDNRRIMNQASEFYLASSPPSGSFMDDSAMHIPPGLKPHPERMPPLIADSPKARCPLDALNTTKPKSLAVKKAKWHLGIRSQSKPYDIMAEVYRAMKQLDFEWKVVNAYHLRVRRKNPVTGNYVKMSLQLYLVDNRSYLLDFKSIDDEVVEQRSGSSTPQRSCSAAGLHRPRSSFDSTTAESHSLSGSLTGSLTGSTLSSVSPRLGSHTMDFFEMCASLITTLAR
High affinity nerve growth factor receptor (Homo sapiens), sequence (P04629 33-796 limits assumed): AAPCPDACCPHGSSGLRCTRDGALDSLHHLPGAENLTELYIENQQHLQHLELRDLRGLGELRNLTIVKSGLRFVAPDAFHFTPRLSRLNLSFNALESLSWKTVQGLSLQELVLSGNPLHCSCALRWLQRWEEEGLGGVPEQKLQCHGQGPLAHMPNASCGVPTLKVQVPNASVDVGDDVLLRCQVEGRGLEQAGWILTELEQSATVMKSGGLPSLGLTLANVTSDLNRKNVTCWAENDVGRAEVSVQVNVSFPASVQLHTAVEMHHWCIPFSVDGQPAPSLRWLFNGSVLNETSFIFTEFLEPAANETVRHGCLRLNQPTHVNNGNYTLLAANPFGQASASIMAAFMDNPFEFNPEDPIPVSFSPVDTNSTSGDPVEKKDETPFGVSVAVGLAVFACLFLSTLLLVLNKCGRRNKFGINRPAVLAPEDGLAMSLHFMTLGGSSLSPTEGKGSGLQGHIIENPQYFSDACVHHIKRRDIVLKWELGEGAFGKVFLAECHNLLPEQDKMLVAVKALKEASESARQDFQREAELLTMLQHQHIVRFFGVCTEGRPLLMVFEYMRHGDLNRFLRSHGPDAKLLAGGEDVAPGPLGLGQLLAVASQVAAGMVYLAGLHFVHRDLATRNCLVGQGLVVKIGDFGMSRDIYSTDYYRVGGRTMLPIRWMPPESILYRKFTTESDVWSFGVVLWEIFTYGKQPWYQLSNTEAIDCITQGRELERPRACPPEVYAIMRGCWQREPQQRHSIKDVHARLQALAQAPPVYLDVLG
Phosphatidylinositol 4-phosphate 5-kinase type-1 alpha (Homo sapiens), sequence (Q99755 whole entry): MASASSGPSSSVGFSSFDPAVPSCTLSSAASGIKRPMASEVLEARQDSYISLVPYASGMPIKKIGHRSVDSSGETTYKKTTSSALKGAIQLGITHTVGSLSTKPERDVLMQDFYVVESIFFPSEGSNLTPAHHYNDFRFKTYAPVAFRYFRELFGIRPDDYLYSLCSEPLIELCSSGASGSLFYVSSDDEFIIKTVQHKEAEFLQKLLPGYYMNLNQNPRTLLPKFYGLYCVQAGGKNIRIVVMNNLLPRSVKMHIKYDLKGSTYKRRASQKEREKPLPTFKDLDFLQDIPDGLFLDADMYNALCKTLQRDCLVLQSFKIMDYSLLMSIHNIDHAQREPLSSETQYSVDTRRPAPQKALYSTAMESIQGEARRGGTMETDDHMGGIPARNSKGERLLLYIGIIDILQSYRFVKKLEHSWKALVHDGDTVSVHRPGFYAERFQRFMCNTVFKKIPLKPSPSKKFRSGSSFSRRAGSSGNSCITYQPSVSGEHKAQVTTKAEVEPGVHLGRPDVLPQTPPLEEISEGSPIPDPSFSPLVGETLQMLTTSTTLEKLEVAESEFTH
Casein kinase I isoform gamma-2 (Homo sapiens), sequence (P78368 whole entry, looked up, canonical isoform): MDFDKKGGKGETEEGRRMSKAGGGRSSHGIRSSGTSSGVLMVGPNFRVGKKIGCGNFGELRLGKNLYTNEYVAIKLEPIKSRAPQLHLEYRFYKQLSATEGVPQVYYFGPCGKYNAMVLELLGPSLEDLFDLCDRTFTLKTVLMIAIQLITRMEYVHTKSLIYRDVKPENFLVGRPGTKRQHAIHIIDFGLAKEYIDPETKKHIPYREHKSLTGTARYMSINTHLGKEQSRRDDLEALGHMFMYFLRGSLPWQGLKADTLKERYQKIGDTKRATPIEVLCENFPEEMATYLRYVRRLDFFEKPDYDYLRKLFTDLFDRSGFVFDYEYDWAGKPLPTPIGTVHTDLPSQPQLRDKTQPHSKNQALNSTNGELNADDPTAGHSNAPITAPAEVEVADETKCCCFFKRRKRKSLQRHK

In the case of `COc1cc2ncnc(N[C@H](C)c3cccc4ccccc34)c2cc1OC`, the Activity in [1] came out at 94%; in [2], 52%; in [3], 72%; in [4], 91%; in assay [5] it was 71%; in assay [6] it was 89%. Also, the figures for the Activity in assay [7], in assay [8] and in [9] were 90%, 100% and 89%, respectively.

These data come from ChEMBL document CHEMBL5678818, “Discovery of potent SOS1 inhibitors that block RAS activation via disruption of the RAS-SOS1 interaction” (Proc Natl Acad Sci U S A, 2019).
